From patent US10513680B2, “Green microalgae lacking a functional DYRKP-1 gene, for use for increased production of feedstock” (COMMISSARIAT A L'ENERGIE ATOMIQUE ET AUX ENERGIES …, priority 2014, dated 2019)

How the values were obtained:
std1 mutant = assay: Inhibition of TAG and starch accumulation by LOX inhibitor in std1 mutant under nitrogen starvation; assay type: cell-based, Chlamydomonas reinhardtii; conditions: 5 mM catechol, after 6-day under nitrogen starvation (FIG. 14)
Method: FIGS. 14A and 14B depict the inhibition of TAG and starch accumulation in the mutant by LOX inhibitors.
FIG. 14A depicts starch accumulation.
FIG. 14B depicts TAG accumulation.
The starch and chlorophyll contents were measured according to (Chochois et al., 2010). One mL of culture was harvested, centrifuged at ˜20,000 g for 10 min, resuspended in 1 mL of methyl alcohol for chlorophyll extraction and stored at −80° C. The pellets were dried, and 400 μL of water were added. To solubilize starch, the samples were autoclaved setting “dry cycle”. Subsequently, starch was degraded to glucose by adding 200 μL amyloglucosidase solution (1 U/mL, Roche) and incubation at 55° C. for 1-2 h. Using an automated sugar analyzer (Ysi model 2700 select, Yellow Springs, Ohio, USA), glucose concentration were determined. Chlorophyll was extracted by methanol, and chlorophyll a and b were determined by measuring the absorbance at 653, 666 and 750 nm using UV-VIS spectrophotometer (SAFAS UVmc2 with the software SP2000).
C. reinhardtii cells (eq. to 2 mm^3 total cellular volume) were harvested by centrifuge at 1000 g for 2 min (at 4° C.). The cells were either frozen right away under −80° C., or quenched in hot isopropanol for immediate lipid extractions. Total cellular lipids were extracted using a mixture of hexane and isopropanol (Li-Beisson et al., 2010). […]

WT strains = assay: Inhibition of TAG and starch accumulation by LOX inhibitor in WT strains under nitrogen starvation; assay type: cell-based, Chlamydomonas reinhardtii; conditions: in response to nitrogen starvation

Oc1ccccc1O [catechol]
TAG accumulation (std1 mutant): inhibited | starch accumulation (std1 mutant): inhibited | TAG accumulation (WT strains): inhibited | starch accumulation (WT strains): no effect
